T1: TGF-β1-α2M* complex (Homo sapiens, UniProt P01023)
T1 construct: was purified from pooled citrate-treate human plasma; from tissue; host or cells: pooled citrate-treated human plasma
T1 sequence (P01023 24-1474): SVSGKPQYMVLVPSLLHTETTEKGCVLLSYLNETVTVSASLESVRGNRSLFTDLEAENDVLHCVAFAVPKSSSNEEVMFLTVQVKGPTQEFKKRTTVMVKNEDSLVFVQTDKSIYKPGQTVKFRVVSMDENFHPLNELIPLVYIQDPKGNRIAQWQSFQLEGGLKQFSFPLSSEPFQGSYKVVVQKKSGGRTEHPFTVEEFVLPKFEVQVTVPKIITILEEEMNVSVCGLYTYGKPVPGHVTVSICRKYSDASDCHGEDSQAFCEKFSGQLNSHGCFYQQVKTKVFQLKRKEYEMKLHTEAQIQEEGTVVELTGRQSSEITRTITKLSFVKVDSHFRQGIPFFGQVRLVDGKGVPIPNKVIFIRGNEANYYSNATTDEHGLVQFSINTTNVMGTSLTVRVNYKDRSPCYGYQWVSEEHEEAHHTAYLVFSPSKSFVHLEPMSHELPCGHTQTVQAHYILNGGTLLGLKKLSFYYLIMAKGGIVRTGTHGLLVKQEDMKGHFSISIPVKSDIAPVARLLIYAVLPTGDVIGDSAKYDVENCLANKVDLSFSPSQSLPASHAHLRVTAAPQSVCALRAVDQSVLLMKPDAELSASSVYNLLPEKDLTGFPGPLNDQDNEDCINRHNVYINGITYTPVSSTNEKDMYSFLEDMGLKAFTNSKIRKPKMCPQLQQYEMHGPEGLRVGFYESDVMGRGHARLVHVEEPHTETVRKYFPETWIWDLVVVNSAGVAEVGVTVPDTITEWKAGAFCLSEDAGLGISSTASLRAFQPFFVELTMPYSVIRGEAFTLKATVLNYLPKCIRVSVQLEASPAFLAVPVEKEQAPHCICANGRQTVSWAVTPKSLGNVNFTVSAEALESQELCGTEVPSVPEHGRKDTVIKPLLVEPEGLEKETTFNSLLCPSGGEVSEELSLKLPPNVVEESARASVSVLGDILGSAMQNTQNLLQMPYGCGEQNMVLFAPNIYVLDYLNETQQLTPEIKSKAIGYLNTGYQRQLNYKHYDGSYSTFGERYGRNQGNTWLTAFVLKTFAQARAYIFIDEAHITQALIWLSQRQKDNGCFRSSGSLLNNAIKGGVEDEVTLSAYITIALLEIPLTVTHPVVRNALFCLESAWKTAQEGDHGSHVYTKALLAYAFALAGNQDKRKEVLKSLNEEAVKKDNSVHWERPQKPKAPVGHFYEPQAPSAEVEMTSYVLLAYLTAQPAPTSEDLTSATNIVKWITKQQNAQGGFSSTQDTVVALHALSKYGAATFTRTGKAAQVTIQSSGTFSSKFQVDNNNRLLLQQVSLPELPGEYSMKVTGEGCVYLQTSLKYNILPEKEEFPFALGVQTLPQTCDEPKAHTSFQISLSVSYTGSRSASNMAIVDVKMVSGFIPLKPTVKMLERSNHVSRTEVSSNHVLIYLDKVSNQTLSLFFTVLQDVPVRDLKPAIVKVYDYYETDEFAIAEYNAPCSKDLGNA

B1: TGF-β2: transforming growth factor β isoform 2, 25-kDa dimeric protein (protein, UniProt P61812 303-414, looked up)
Transforming growth factor …: ALDAAYCFRNVQDNCCLRPLYIDFKRDLGWKWIHEPKGYNANFCAGACPYLWSSDTQHSRVLSLYNTINPEASASPCCVSQDLEPLTILYYIGKTPKIEQLSNMIVKSCKCS

Key:
TGF-β1-α2M* complex = biological target: T1, TGF-β1-α2M* complex; assay: Inhibition of 125I-TGF-β1 and α2M* complex formation (5% non-denaturing PAGE, autoradiography); type: binding; conditions: for IC50: ~1 nM 125I-TGF-β1, 10 μg α2M* in 0.05 ml, 30 min room temperature, non-denaturing PAGE, read-out: IC50 for inhibiting complex formation between TGF-β1 and α2M*
Method: Saturated and unsaturated fatty acids are present in plasma and tissues (25,26). The effects of various concentrations of saturated fatty acids on the formation of complexes between ^125I-TGF ? β1 and ? 2M* were examined. ^125I-TGF- ? 1 (1 nM) was incubated μg/ml) in the presence of various concentrations of n-caprylic acid ([…]), lauric acid (12 carbon atoms), myristic acid (14 carbon atoms), palmitic acid (16 carbon atoms) and stearic acid (18 carbon atoms). After 30 min at room temperature, the reaction mixture was analyzed by 5% non-denaturing PAGE and autoradiography, a standard method form determining complex formation between TGF-β and α2M* (12). […] At 100 μM, it inhibited 20% of the complex formation between TGF ? β1 and α2M*. Esterification consistently abolished the inhibitory activities of the fatty acids.
Complex formation of ^125I-TGF-β and ? 2M*—The reaction mixture contained 10 μg of . α2M*, ˜1 nM of ^125I-TGF- ? 1, ^125I-TGF ? β2 or ^125I-TGF ? acids (dissolved in 100% ethanol) in 0.05 ml of 50 mM HEPES-NaOH buffer, pH 7.4. The final concentration of ethanol in the reaction mixture was 0.5%. These fatty acids and fatty acid derivatives were soluble under the experimental conditions. After 30 min at room temperature, the complex formation of ^125I-TGF- ? and. α2M* was determined by 5% non-denaturing polyacrylamide gel electrophoresis (PAGE) or by 7.5% SDS-PAGE following cross-linking by 0.6 mM DSS. After electrophoresis, the gel was stained with Coomassie blue and analyzed by autoradiography. The ^125I-TGF- ? - ? 2M* complex which co-migrated with free ? 2M* was quantified using a PhosphoImager (Fuji).

Mv1Lu cells = assay: [Methyl-3H]-thymidine incorporation assay, TGF-β2-induced growth inhibition; type: cell-based, mink; conditions: 1 pM, absence of α2M*
Text: The levels of TGF ? β and ? 2M* also increase dramatically. α2M* is capable of inhibiting TGF- ? activity by forming complexes with TGF- ? and thus preventing it from binding to TGF ? β receptors in cells involved. Fatty acids may potentiate TGF ? β activity by blocking complex formation of ? 2M* and TGF ? β under these conditions. To test this possibility, we determined the effects of arachidonic acid on ^125I-TGF- ? 2 binding (in the presence and absence of α2M*) to Mv1Lu cells. ? 2M* is known to inhibit TGF- ? 2 more strongly than TGF ? β1 binding to T receptors in cells (13). Various concentrations of ^125I-TGF- ? 2 were preincubated with 200 μg/ml of ? 2M* in the presence or absence of 30 μM arachidonic acid for 30 min prior to the performance of binding assays in Mv1Lu cells. […] The residual ^125I-TGF- ? binding associated with the cells after ? 2M* inhibition was mainly due to non-specific binding of ^125I-TGF- ? 2. […] In the presence of 200 μg/ml of ? 2M*, the dose-response curve of TGF ? β2 shifted to the right. […] Addition of arachidonic acid at 0.5 and 1 μM reversed the inhibitory effect of. α2M* on TGF- ? 2-induced growth inhibition as measured by [methyl-^3H]-thymidine incorporation.
[Methyl-^3H]-Thymidine Incorporation Assay—Mv1Lu cells were plated at a cell density of 7.5×10^4 cells/well in DMEM containing 0.1% fetal calf serum in 48-well cluster dishes. After 4 hr at 37° C. (to allow cell adherence), cells were treated with various concentrations of TGF- ? 2,2M* (0 or 200 μg/ml) and arachidonic acid ([…] or 1 μM). After 1h at 37° C., cells were pulsed with 1 μCi/ml [methyl-^3H]-thymidine for 2 hr. The [methyl-^3H]-th incorporation into cellular DNA was carried out in triplicate as described previously (23).

| Molecule | IC50 (TGF-β1-α2M* complex) | inhibitory activity on complex formation of 125I-TGF-β1 and α2M* (TGF-β1-α2M* complex) | further results |
| --- | --- | --- | --- |
| CCCCCCCCCCCC(=O)O [lauric acid] | 68 µM |  |  |
| CC/C=C\C/C=C\C/C=C\CCCCCCCC(=O)O [linolenic acid] | 26 ± 3.1 µM |  |  |
| CCCCCCCC(=O)O [n-caprylic acid] |  | relatively weak inhibitor | inhibition of the complex formation between TGF-β1 and α2M* (TGF-β1-α2M* complex; at 100 μM): 20% |
| CCCCC/C=C\C/C=C\C/C=C\C/C=C\CCCC(=O)OC [arachidonic acid methyl ester] |  | inactive |  |
| CCCCCCCC/C=C\CCCCCCCC(=O)O [oleic acid] | 5.2 ± 2 µM |  |  |
| B1 |  |  | inhibition of [methyl-3H]-thymidine incorporation into DNA (Mv1Lu cells): approximately 25% |

Source: patent publication US20040229791A1, “Compositions and methods of modulating TGF-beta activity by fatty acids” (priority 2002, published 2004)
